Results taken from ChEMBL document CHEMBL1828533, “Lipid and sulfur substituted prenylcysteine analogs as human Icmt inhibitors” (Bioorg Med Chem Lett, 2011).
pIC50: −log10 of the molar value. The source made the active and inactive calls. The rule behind the calls is not given here.

Assays:
[1] = target: T1, Protein-S-isoprenylcysteine O-methyltransferase (Homo sapiens, UniProt O60725); assay: Inhibition of human ICMT at 10 uM by vapor diffusion assay
[2] = target: T1, Protein-S-isoprenylcysteine O-methyltransferase; assay: Inhibition of human ICMT at 25 uM by vapor diffusion assay
[3] = target: T1, Protein-S-isoprenylcysteine O-methyltransferase; assay: Substrate activity at human ICMT by vapor diffusion assay
[4] = target: T1, Protein-S-isoprenylcysteine O-methyltransferase; assay: Inhibition of human ICMT by vapor diffusion assay

T1 sequence (O60725 whole entry, the tested form may be a part): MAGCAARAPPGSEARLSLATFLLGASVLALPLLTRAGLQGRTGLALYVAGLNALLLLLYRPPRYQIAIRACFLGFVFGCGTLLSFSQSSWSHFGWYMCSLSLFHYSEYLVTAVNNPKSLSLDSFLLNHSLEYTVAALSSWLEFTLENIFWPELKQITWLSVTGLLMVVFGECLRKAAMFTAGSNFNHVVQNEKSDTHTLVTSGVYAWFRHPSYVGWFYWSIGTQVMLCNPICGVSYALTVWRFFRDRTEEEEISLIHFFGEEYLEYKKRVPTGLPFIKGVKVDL

Row | inhibition [1] [%] | Structure (SMILES) | also measured
1 | 20.7 | CCCc1ccc(CC/C(C)=C/CSC[C@H](NC(C)=O)C(=O)O)cc1 | 
2 | 26.6 | CC(=O)N[C@@H](CSC/C=C(/Cc1ccc(-c2ccccc2)cc1)c1ccccc1)C(=O)O | 
3 | 15.7 | CC(=O)N[C@@H](CSC/C=C(/Cc1ccccc1)c1ccccc1)C(=O)O | 
4 |  | CC(=O)N[C@@H](CSC/C=C(/C)CC/C=C(/C)CCC=C(C)C)C(=O)O | inhibition [2]: 100%
5 | 22.7 | CC(C)=CCC/C(C)=C/CC/C(C)=C/Cc1cn(C[C@H](NC(=O)CCS(=O)(=O)c2ccccc2)C(=O)O)nn1 | Activity [3]: inactive
6 | 19.5 | CC(=O)N[C@@H](Cn1cc(C/C=C(\C)CC/C=C(\C)CCC=C(C)C)nn1)C(=O)O | Activity [3]: inactive
7 | 23.1 | CCCCCc1ccc(CC/C(C)=C/CSC[C@H](NC(C)=O)C(=O)O)cc1 | 
8 | 10.1 | COc1ccc([N+](=O)[O-])c(C(=O)N[C@@H](Cn2cc(C/C=C(\C)CC/C=C(\C)CCC=C(C)C)nn2)C(=O)O)c1 | Activity [3]: inactive
9 | 25.3 | CC(=O)N[C@@H](CSC/C=C(/Cc1ccc2c(c1)Cc1ccccc1-2)c1ccccc1)C(=O)O | 
10 | 9.8 | CC(=O)N[C@@H](CSC/C=C(\C)COc1ccc(Cc2ccccc2)cc1)C(=O)O | 
11 | 35.9 | CC(C)=CCC/C(C)=C/CC/C(C)=C/Cc1cn(C[C@H](NC(=O)c2ccccc2Oc2ccccc2)C(=O)O)nn1 | pIC50 [4]: 4.71
12 | 17 | CC(C)=CCC/C(C)=C/CC/C(C)=C/Cc1cn(C[C@H](NC(=O)c2ccccc2-c2ccccc2)C(=O)O)nn1 | Activity [3]: inactive
13 | 22.4 | CC(=O)N[C@@H](CSC/C=C(\C)CCCCOc1ccc2ccccc2c1)C(=O)O | 
14 | 18.8 | CCCCCCc1ccc(CC/C(C)=C/CSC[C@H](NC(C)=O)C(=O)O)cc1 | 
15 | 19.4 | CC(=O)N[C@@H](CSC/C=C(\C)CCCCOc1ccc(Oc2ccccc2)cc1)C(=O)O | 
16 | 31.1 | CCCCCCCCc1ccc(CC/C(C)=C/CSC[C@H](NC(C)=O)C(=O)O)cc1 | pIC50 [4]: 4.46
17 | 14.5 | CC(=O)N[C@@H](CSC/C=C(\C)COc1ccc2ccccc2c1)C(=O)O | 
18 | 15.5 | CC(=O)N[C@@H](CSC/C=C(\C)COc1ccc(Oc2ccccc2)cc1)C(=O)O | 
